# Results from patent publication US9725445B2, “Cycloalkyl nitrile pyrazolo pyridones as Janus kinase inhibitors” (Merck Sharp & Dohme Corp., priority 2013, dated 2017).
# Structures can show the parent of a compound that is named as a salt.
# How the values were obtained:
# JAK1 = JAK1 (Homo sapiens (Human), UniProt P23458); test: Jak biochemical HTRF assay, JAK1; details: HTRF biochemical assay, recombinant GST-tagged catalytic domain; read-out: JAK1 IC50
# JAK2 = JAK2 (Homo sapiens (Human), UniProt O60674); test: Jak biochemical HTRF assay, JAK2; details: HTRF biochemical assay, recombinant GST-tagged catalytic domain; read-out: JAK2 IC50
# JAK2, sequence (O60674 849-1124): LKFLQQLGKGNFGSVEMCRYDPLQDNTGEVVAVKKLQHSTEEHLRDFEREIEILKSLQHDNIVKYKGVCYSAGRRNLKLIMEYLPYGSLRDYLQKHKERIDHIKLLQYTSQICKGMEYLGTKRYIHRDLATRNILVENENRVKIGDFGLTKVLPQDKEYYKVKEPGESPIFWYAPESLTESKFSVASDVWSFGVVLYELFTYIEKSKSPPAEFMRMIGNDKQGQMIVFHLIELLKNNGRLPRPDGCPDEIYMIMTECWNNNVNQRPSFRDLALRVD
# JAK1, sequence (P23458 875-1153): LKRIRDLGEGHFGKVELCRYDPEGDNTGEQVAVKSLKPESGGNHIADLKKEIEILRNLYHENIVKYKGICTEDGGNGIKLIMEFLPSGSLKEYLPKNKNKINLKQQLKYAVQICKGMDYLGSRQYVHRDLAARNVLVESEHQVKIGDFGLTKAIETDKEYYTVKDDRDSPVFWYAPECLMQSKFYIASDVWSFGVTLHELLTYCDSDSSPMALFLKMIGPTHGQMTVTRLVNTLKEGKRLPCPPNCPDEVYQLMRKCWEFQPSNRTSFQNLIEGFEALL
SMILES,IC50 (JAK1) [nM],IC50 (JAK2) [nM]
"CC(C)(C)OC(=O)[C@H]1CC[C@@H](N2Cc3cc(Nc4nn([C@H]5CCCC[C@@H]5C#N)c5cc[nH]c(=O)c45)ccc3S2(=O)=O)CC1 [Example 15-43, (1S,4S)-tert-butyl 4-(5-((1-((1S,2S)-2-cyanocyclohexyl)-4-oxo-4,5-dihydro-1H-pyrazolo[4,3-c]pyridin-3-yl)amino)-1,1-dioxidobenzo[d]isothiazol-2(3H)-yl)cyclohexanecarboxylate]",0.22,1.2
"N#C[C@H]1CCCC[C@@H]1n1nc(Nc2ccc([C@H](N)C(F)(F)F)cc2)c2c(=O)[nH]ccc21 [Example 7-4, (1S,2S)-2-[3-({4-[(1S)-1-amino-2,2,2-trifluoroethyl]phenyl}amino)-4-oxo-4,5-dihydro-1H-pyrazolo[4,3-c]pyridin-1-yl]cyclohexanecarbonitrile]",0.11,0.41
"N#C[C@H]1CCCC[C@@H]1n1nc(Nc2ccc(C(=O)O)cc2)c2c(=O)[nH]ccc21 [Example 16-1, 4-((1-((1S,2S)-2-Cyanocyclohexyl)-4-oxo-4,5-dihydro-1H-pyrazolo[4,3-c]pyridin-3-yl)amino)benzoic acid, HCl]",0.16,3.4
"CC1c2cc(Nc3nn([C@H]4CCCC[C@@H]4C#N)c4cc[nH]c(=O)c34)ccc2S(=O)(=O)N1C (single isomer, unassigned) [Example 3-127, (1S,2S)-2-(3-(((R or S)-2,3-dimethyl-1,1-dioxido-2,3-dihydrobenzo[d]isothiazol-5-yl)amino)-4-oxo-4,5-dihydro-1H-pyrazolo[4,3-c]pyridin-1-yl)cyclohexanecarbonitrile]",0.33,2.6
"CN1Cc2ccc(Nc3nn([C@H]4CCCC[C@@H]4C#N)c4cc[nH]c(=O)c34)cc2C1 [Example 3-64, (1S,2S)-2-{3-[(2-methyl-2,3-dihydro-1H-isoindol-5-yl)amino]-4-oxo-4,5-dihydro-1H-pyrazolo[4,3-c]pyridin-1-yl}cyclohexanecarbonitrile]",0.39,1.6
"N#C[C@H]1CCCC[C@@H]1n1nc(Nc2ccc([C@@H]3C[C@H]4CC[C@@H](C3)N4)cc2)c2c(=O)[nH]ccc21 [Example 20-1, (1S,2S)-2-(3-((4-((1R,3S,5S)-8-azabicyclo[3.2.1]octan-3-yl)phenyl)amino)-4-oxo-4,5-dihydro-1H-pyrazolo[4,3-c]pyridin-1-yl)cyclohexanecarbonitrile hydrochloride]",0.38,0.57
"N#C[C@H]1CCC[C@@H]1n1nc(Nc2ccc(C(N)C(F)(F)F)cc2)c2c(=O)[nH]ccc21 (single isomer, unassigned) [Example 3-104, (1S,2S)-2-[3-({4-[(1S or 1R)-1-amino-2,2,2-trifluoroethyl]phenyl}amino)-4-oxo-4,5-dihydro-1H-pyrazolo[4,3-c]pyridin-1-yl]cyclopentanecarbonitrile]",0.22,0.59
"CC(C)(C)OC(=O)NCc1cc(F)cc(Nc2nn([C@H]3CCCC[C@@H]3C#N)c3cc[nH]c(=O)c23)c1 [Example 3-36, tert-butyl [3-({1-[(1S,25)-2-cyanocyclohexyl]-4-oxo-4,5-dihydro-1H-pyrazolo[4,3-c]pyridin-3-yl}amino)-5-fluorobenzyl]carbamate]",2.3,3.8
"CN(C)[C@H]1CC[C@H](n2nc(Nc3ccc(Cl)cc3)c3c(=O)[nH]ccc32)[C@@H](C#N)C1 [Example 5-16, (1S,2S,5S)-2-(3-((4-chlorophenyl)amino)-4-oxo-4,5-dihydro-1H-pyrazolo[4,3-c]pyridin-1-yl)-5-(dimethylamino)cyclohexanecarbonitrile]",0.34,11
"N#C[C@H]1CCCC[C@@H]1n1nc(Nc2ccc(S(=O)(=O)NCc3ccccc3)cc2)c2c(=O)[nH]ccc21 [Example 3-19, N-benzyl-4-({1-[(1S,2S)-2-cyanocyclohexyl]-4-oxo-4,5-dihydro-1H-pyrazolo[4,3-c]pyridin-3-yl}amino)benzenesulfonamide]",0.21,1.2
"CC(O)(c1ccc(Nc2nn([C@H]3CCCC[C@@H]3C#N)c3cc[nH]c(=O)c23)cc1)C(F)(F)F (single isomer, unassigned) [Example 15-11, (1S,2S)-2-[4-oxo-3-({4-[(1R or 1S)-2,2,2-trifluoro-1-hydroxy-1-methylethyl]phenyl}amino)-4,5-dihydro-1H-pyrazolo[4,3-c]pyridin-1-yl]cyclohexanecarbonitrile]",0.13,0.84
"N#C[C@H]1C[C@@H](N2CCC2)CC[C@@H]1n1nc(Nc2ccc(C(F)(F)F)cc2)c2c(=O)[nH]ccc21 [Example 5-8, (1S,2S,5S)-5-(azetidin-1-yl)-2-(4-oxo-3-((4-(trifluoromethyl)phenyl)amino)-4,5-dihydro-1H-pyrazolo[4,3-c]pyridin-1-yl)cyclohexanecarbonitrile]",0.88,22
"CC(C)(C)OC(=O)CCN1Cc2cc(Nc3nn([C@H]4CCCC[C@@H]4C#N)c4cc[nH]c(=O)c34)ccc2S1(=O)=O [Example 3-150, tert-butyl 3-[5-({1-[(1S,2S)-2-cyanocyclohexyl]-4-oxo-4,5-dihydro-1H-pyrazolo[4,3-c]pyridin-3-yl}amino)-1,1-dioxido-1,2-benzisothiazol-2(3H)-yl]propanoate]",0.066,0.55
"CC(C)C(c1ccc(Nc2nn([C@H]3CCCC[C@@H]3C#N)c3cc[nH]c(=O)c23)cc1)n1cc(C(=O)OC(C)(C)C)nn1 (single isomer, unassigned) [Example 15-58, tert-butyl 1-{(1R or 1S)-1-[4-({1-[(1S,2S)-2-cyanocyclohexyl]-4-oxo-4,5-dihydro-1H-pyrazolo[4,3-c]pyridin-3-yl}amino)phenyl]-2-methylpropyl}-1H-1,2,3-triazole-4-carboxylate]",1.8,3.1
"N#C[C@H]1CCCC[C@@H]1n1nc(Nc2ccc(S(N)(=O)=O)cc2)c2c(=O)[nH]ccc21 [Example 3-7, 4-({1-[(1S,2S)-2-cyanocyclohexyl]-4-oxo-4,5-dihydro-1H-pyrazolo[4,3-c]pyridin-3-yl}amino)benzenesulfonamide]",0.11,0.85
"N#C[C@H]1CCCC[C@@H]1n1nc(Nc2cccc(Cn3ccnc3)c2)c2c(=O)[nH]ccc21 [Example 3-47, (1S,2S)-2-(3-{[3-(1H-imidazol-1-ylmethyl)phenyl]amino}-4-oxo-4,5-dihydro-1H-pyrazolo[4,3-c]pyridin-1-yl)cyclohexanecarbonitrile]",0.78,2.2
N#C[C@H]1CCCC[C@@H]1n1nc(Nc2ccc(C3(C(F)(F)F)CC3)cc2)c2c(=O)[nH]ccc21 [Example 15-19],1,8.1
"CC(O)(c1ccc(Nc2nn([C@H]3CCCC[C@@H]3C#N)c3cc[nH]c(=O)c23)cc1)C(F)(F)F (single isomer, unassigned) [Example 15-12, (1S,2S)-2-[4-oxo-3-({4-[(1R or 1S)-2,2,2-trifluoro-1-hydroxy-1-methylethyl]phenyl}amino)-4,5-dihydro-1H-pyrazolo[4,3-c]pyridin-1-yl]cyclohexanecarbonitrile]",0.14,0.84
"CCNC(c1ccc(Nc2nn([C@H]3CCC[C@@H]3C#N)c3cc[nH]c(=O)c23)cc1)C(F)(F)F (single isomer, unassigned) [Example 3-114, (1S,2S)-2-[3-({4-[(1S or 1R)-1-(ethylamino)-2,2,2-trifluoroethyl]phenyl}amino)-4-oxo-4,5-dihydro-1H-pyrazolo[4,3-c]pyridin-1-yl]cyclopentanecarbonitrile]",0.19,0.28
"N#C[C@H]1CCCC[C@@H]1n1nc(Nc2ccc(-c3ncon3)cc2)c2c(=O)[nH]ccc21 [Example 15-3, (1S,2S)-2-(3-{[4-(1,2,4-oxadiazol-3-yl)phenyl]amino}-4-oxo-4,5-dihydro-1H-pyrazolo[4,3-c]pyridin-1-yl)cyclohexanecarbonitrile]",0.51,3.6
"N#C[C@H]1CCCC[C@@H]1n1nc(Nc2ccc(S(=O)(=O)NCC3CC3)cc2)c2c(=O)[nH]ccc21 [Example 3-20, 4-({1-[(1S,2S)-2-cyanocyclohexyl]-4-oxo-4,5-dihydro-1H-pyrazolo[4,3-c]pyridin-3-yl}amino)-N-(cyclopropylmethyl)benzene-sulfonamide]",0.13,0.6
"N#C[C@H]1CCCC[C@@H]1n1nc(Nc2ccc3c(c2)CC2(CCCCC2)S3(=O)=O)c2c(=O)[nH]ccc21 [Example 21-2, (1S,2S)-2-(3-((1,1-Dioxido-3H-spiro[benzo[b]thiophene-2,1′-cyclohexan]-5-yl)amino)-4-oxo-4,5-dihydro-1H-pyrazolo[4,3-c]pyridin-1-yl)cyclohexanecarbonitrile]",0.12,0.38
"CC(C)OC(=O)c1ccc2cc(Nc3nn([C@H]4CCCC[C@@H]4C#N)c4cc[nH]c(=O)c34)ccc2n1 [Example 15-16, isopropyl 6-((1-((1S,2S)-2-cyanocyclohexyl)-4-oxo-4,5-dihydro-1H-pyrazolo[4,3-c]pyridin-3-yl)amino)quinoline-2-carboxylate]",0.26,3.8
"Cc1nc2ccc(Nc3nn([C@H]4CCCC[C@@H]4C#N)c4cc[nH]c(=O)c34)cc2s1 [Example 15-10, (1S,2S)-2-{3-[(2-methyl-1,3-benzothiazol-6-yl)amino]-4-oxo-4,5-dihydro-1H-pyrazolo[4,3-c]pyridin-1-yl}cyclohexanecarbonitrile]",0.092,1.6
"COCC(C)(C)N1Cc2cc(Nc3nn([C@H]4CCCC[C@@H]4C#N)c4cc[nH]c(=O)c34)ccc2S1(=O)=O [Example 3-160, (1S,2S)-2-(3-{[2-(2-methoxy-1,1-dimethylethyl)-1,1-dioxido-2,3-dihydro-1,2-benzisothiazol-5-yl]amino}-4-oxo-4,5-dihydro-1H-pyrazolo[4,3-c]pyridin-1-yl)cyclohexanecarbonitrile]",0.049,0.19
